Data from US11147801B2, “Methods of use for trisubstituted benzotriazole derivatives as dihydroorotate oxygenase inhibitors” (Aurigene Discovery Technologies Limited, priority 2017, dated 2021).

Assays:
AML-193 = assay: Heme line growth assay (Cell-Titer Glo), 4-day and extended 7-day; assay type: cell-based, human; set-up: key to Sensitivity 7-day: *: insensitive; **: intermediate; ***: sensitive
Description: (§1) A follow-up screen was performed on an expanded panel of cell lines of heme lineage in a 4-day growth assay. Growth was assessed by Cell-Titer Glo measurements on day 0 and day 4.
(§2) Compound 1, of which diffuse large B cell lymphoma (DLBCL) lines were particularly sensitive (8/11 or 73%). A subset of the heme lines that were of intermediate sensitivity (defined as >50% and <75% growth rate inhibition) or insensitive (defined as <50% growth rate inhibition) to compound 1 in this follow-up screen were subjected to extended growth assays to evaluate if increased treatment time modulated their sensitivity profile. Specifically, these heme lines were pretreated with Compound 1 for three days at the indicated concentrations and then re-plated for a standard 4-day growth assay in fresh media/drug.

BDCM = assay: as above; assay type: cell-based, human; set-up: key to Sensitivity 7-day: *: insensitive; **: intermediate; ***: sensitive
Description: as §1, §2

F36P = assay: as above; assay type: cell-based, human; set-up: key to Sensitivity 7-day: *: insensitive; **: intermediate; ***: sensitive
Description: as §1, §2

HEL = assay: as above; assay type: cell-based, human; set-up: key to Sensitivity 7-day: *: insensitive; **: intermediate; ***: sensitive
Description: as §1, §2

HuNS1 = assay: as above; assay type: cell-based, human; set-up: key to Sensitivity 7-day: *: insensitive; **: intermediate; ***: sensitive
Description: as §1, §2

KG-1 = assay: as above; assay type: cell-based, human; set-up: key to Sensitivity 7-day: *: insensitive; **: intermediate; ***: sensitive
Description: as §1, §2

KMS12BM = assay: as above; assay type: cell-based, human; set-up: key to Sensitivity 7-day: *: insensitive; **: intermediate; ***: sensitive
Description: as §1, §2

LP1 = assay: as above; assay type: cell-based, human; set-up: key to Sensitivity 7-day: *: insensitive; **: intermediate; ***: sensitive
Description: as §1, §2

MOLP-2 = assay: as above; assay type: cell-based, human; set-up: key to Sensitivity 7-day: *: insensitive; **: intermediate; ***: sensitive
Description: as §1, §2

REC-1 = assay: as above; assay type: cell-based, human; set-up: key to Sensitivity 7-day: *: insensitive; **: intermediate; ***: sensitive
Description: as §1, §2

SUDHL4 = assay: as above; assay type: cell-based, human; set-up: key to Sensitivity 7-day: *: insensitive; **: intermediate; ***: sensitive
Description: as §1, §2

TF1 = assay: as above; assay type: cell-based, human; set-up: key to Sensitivity 7-day: *: insensitive; **: intermediate; ***: sensitive
Description: as §1, §2

THP-1 = assay: as above; assay type: cell-based, human; set-up: key to Sensitivity 7-day: *: insensitive; **: intermediate; ***: sensitive
Description: as §1, §2

U266B1 = assay: as above; assay type: cell-based, human; set-up: key to Sensitivity 7-day: *: insensitive; **: intermediate; ***: sensitive
Description: as §1, §2

cancer lines = assay: Cell growth assays with uridine supplemented into the medium (uridine rescue); assay type: cell-based
Description: To confirm that the effects of Compound 1 in impairing cell growth/viability were due to specific inhibition of DHODH, cell growth assays were performed with varying amounts of uridine supplemented into the medium.

[1] = test system: AML and DLBCL patient-derived xenograft models; assay: AML and DLBCL patient-derived xenograft models (all models); assay type: in vivo, CB17 SCID mice; conditions: all five AML and two DLBCL patient-derived models, 100 mg/kg BID PO
Description: A screen was next performed using a small number of mice/group to assess efficacy of Compound 1 in AML and DLBCL patient-derived xenograft models. Tumor-bearing mice (n=3/group) were treated with vehicle or Compound 1 at 100 mg/kg BID PO.

CARNAVAL = assay: Double-hit DLBCL 96-hr growth assay; assay type: cell-based, human
Description: (§3) FIG. 8 is a curve showing the relative growth rate of OCILY18, SC-1 and CARNAVAL double hit diffuse large B cell lymphoma (DLBCL) cell lines treated with various concentrations of Compound 1 for 96 hours.

OCILY18 = assay: Double-hit DLBCL 96-hr growth assay; assay type: cell-based, human
Description: as §3

SC-1 = assay: Double-hit DLBCL 96-hr growth assay; assay type: cell-based, human; conditions: SC-1, double-hit DLBCL
Description: as §3

[2] = 3 days pretreatment then 4-day growth assay
[3] = acute myeloid leukemia, 4-day growth assay

## Cc1ccccc1-c1ccc(-c2cc(C(=O)O)c3c(c2)nnn3C)cc1 [Compound 1, 1-methyl-5-(2′-methyl-[1,1′-biphenyl]-4-yl)-1H-benzo[d][1,2,3]triazole-7-carboxylic Acid]
AML-193; AML-193, 3 days pretreatment then 4-day growth assay
  Sensitivity 7-day: ***
AML-193; AML-193, acute myeloid leukemia, 4-day growth assay
  Sensitivity 4-day: ** (intermediate)
BDCM; [2]
  Sensitivity 7-day: ***
BDCM; [3]
  Sensitivity 4-day: ** (intermediate)
F36P; [2]
  Sensitivity 7-day: ***
F36P; [3]
  Sensitivity 4-day: ** (intermediate)
HEL; [2]
  Sensitivity 7-day: ***
HEL; [3]
  Sensitivity 4-day: ** (intermediate)
HuNS1; HuNS1, 3 days pretreatment then 4-day growth assay
  Sensitivity 7-day: ***
HuNS1; HuNS1, multiple myeloma, 4-day growth assay
  Sensitivity 4-day: * (insensitive)
KG-1; KG-1, 3 days pretreatment then 4-day growth assay
  Sensitivity 7-day: ***
KG-1; KG-1, acute myeloid leukemia, 4-day growth assay
  Sensitivity 4-day: * (insensitive)
KMS12BM; [2]
  Sensitivity 7-day: ***
KMS12BM; multiple myeloma, 4-day growth assay
  Sensitivity 4-day: ** (intermediate)
LP1; LP1, 3 days pretreatment then 4-day growth assay
  Sensitivity 7-day: ***
LP1; LP1, multiple myeloma, 4-day growth assay
  Sensitivity 4-day: * (insensitive)
MOLP-2; MOLP-2, 3 days pretreatment then 4-day growth assay
  Sensitivity 7-day: ***
MOLP-2; MOLP-2, multiple myeloma, 4-day growth assay
  Sensitivity 4-day: ** (intermediate)
REC-1; REC-1, 3 days pretreatment then 4-day growth assay
  Sensitivity 7-day: ***
REC-1; REC-1, mantle cell lymphoma, 4-day growth assay
  Sensitivity 4-day: * (insensitive)
SUDHL4; SUDHL4, 3 days pretreatment then 4-day growth assay
  Sensitivity 7-day: ***
SUDHL4; SUDHL4, diffuse large B cell lymphoma, 4-day growth assay
  Sensitivity 4-day: ** (intermediate)
TF1; TF1, 3 days pretreatment then 4-day growth assay
  Sensitivity 7-day: ***
TF1; TF1, acute myeloid leukemia, 4-day growth assay
  Sensitivity 4-day: * (insensitive)
THP-1; THP-1, 3 days pretreatment then 4-day growth assay
  Sensitivity 7-day: ***
THP-1; THP-1, acute myeloid leukemia, 4-day growth assay
  Sensitivity 4-day: ** (intermediate)
U266B1; U266B1, 3 days pretreatment then 4-day growth assay
  Sensitivity 7-day: ***
U266B1; U266B1, multiple myeloma, 4-day growth assay
  Sensitivity 4-day: * (insensitive)
Cancer lines; supraphysiologic uridine (25 μM and 100 μM), up to 10 μM of compound
  Rescue of growth effects by exogenous uridine: completely rescued
Cancer lines; uridine close to physiologic (5 μM)
  Rescue of growth effects by exogenous uridine: partially rescued
[1]
  Anti-tumor activity: anti-tumor activity of Compound 1 was observed
CARNAVAL
  Sensitivity to growth inhibition: highly sensitive
OCILY18
  Sensitivity to growth inhibition: highly sensitive
SC-1
  Sensitivity to growth inhibition: highly sensitive
